According to patent publication US8030043B2, “β-galactoside-α2,3-sialyltransferase, a gene encoding thereof, and a method for producing thereof” (Japan Tobacco Inc., priority 2005, dated 2011):

Assays:
[1] = system: ISH224-N1C0 recombinant β-galactoside-α2,3-sialyltransferase; test: Acceptor substrate specificity of recombinant β-galactoside-α2,3-sialyltransferase (mono-, di-, trisaccharides); assay type: biochemical, Photobacterium sp.
Text: (§1) Cell homogenates prepared from E. coli cells introduced with the third clone of ISH467-N2C0, the first clone of ISH224-N1C0 and the first clone of FAJ-N1C0 were each purified by ion exchange chromatography and hydroxyapatite chromatography to give an electrophoretically single band. The thus purified β-galactoside-α2,3-sialyltransferases were used in the following experiment in order to examine the presence or absence of sialyltransferase activity toward various monosaccharides, disaccharides and trisaccharides.
(§2) A reaction solution (24 μl) was prepared to contain CMP-^14C-NeuAc-containing CMP-NeuAc as a glycosyl donor substrate ([…], final concentration in the reaction solution: […]), any of various glycosyl acceptor substrates dissolved in 20 mM cacodylate buffer (pH 5.0) (1 μmol, final concentration in the reaction solution: 42 mM), sialyltransferase (in an amount as indicated in the footnotes of the tables below) and NaCl (final concentration in the reaction solution: 500 mM), and reacted under conditions as indicated in the footnotes of the tables below. The monosaccharides used as glycosyl acceptor substrates were the following 10 types: methyl-α-D-galactopyranoside (Gal-α-OMe), methyl-(β-D-galactopyranoside (Gal-β-OMe), methyl-α-D-glucopyranoside (Glc-α-OMe), methyl-β-D-glucopyranoside (Glc-β-OMe), methyl-α-D-mannopyranoside (Man-α-OMe), methyl-β-D-mannopyranoside (Man-β-OMe), methyl-α-D-fucopyranoside (Fuc-α-OMe), methyl-β-D-fucopyranoside (Fuc-β-OMe), N-acetylgalactosamine (GalNAc), and N-acetylglucosamine ([…]). The disaccharides used were the following 5 types: lactose (Gal-β1,4-Glc), N-acetyllactosamine (Gal-β1,4-GlcNAc), methyl-β-D-galactopyranosyl-β1,3-N-acetylglucosaminide (Gal-β1,3-GlcNAc-β-OMe), methyl-α-D-galactopyranosyl-α1,3-galactopyranoside (Gal-α-1,3-Gal-α-OMe), and methyl-β-D-galactopyranosyl-β1,3-galactopyranoside (Gal-β1,3-Gal-β-OMe). The trisaccharide used was 2′-fucosyllactose (Fuc-α1,2-Galβ1,4-Glc). It should be noted that the final concentration was set to 8.4 mM for the sugar chains shown in Table 18, i.e., methyl-α-D-galactopyranosyl-α1,3-galactopyranoside (Gal-α1,3-Gal-α-OMe), methyl-β-D-galactopyranosyl-β1,3-galactopyranoside (Gal-β1,3-Gal-β-OMe) and 2′-fucosyllactose (Fuc-α1,2-Gal-β1,4-Glc).
(§3) After completion of the enzymatic reaction, 1.98 ml of 5 mM phosphate buffer (pH 6.8) was added to the reaction solution to stop the enzymatic reaction. Then, the enzymatic reaction solution was diluted with 5 mM phosphate buffer (pH 6.8) and applied in a volume of 2 ml to a AG1−×2 Resin (PO4^3− form, 0.2×2 cm) column. This column was prepared as follows: AG1-x 2 Resin (OH^− form, BIO-RAD) was suspended in 1 M phosphate buffer (pH 6.8), and after 30 minutes, the resin was washed with distilled water and then suspended in distilled water. The eluate (0 to 2 ml) from this column was measured for its radioactivity. The eluate from this column contains the unreacted glycosyl acceptor substrate and the ^14C-NeuAc (N-acetylneuraminic acid)-bound reaction product which was generated by the reaction, but unreacted CMP-14C-NeuAc is still retained on the column. Thus, the radioactivity of ^14C from each sialic acid-containing sugar chain generated as a result of the enzymatic reaction arises exclusively from the reaction product, so that the radioactivity of this fraction can be used to calculate the enzyme activity.
(§4) In the manner described above, the radioactivity of NeuAc transferred to each glycosyl acceptor substrate was measured to calculate the amount of transferred sialic acid.

[2] = system: ISH467-N2C0 recombinant β-galactoside-α2,3-sialyltransferase; test: as above; assay type: biochemical, Photobacterium phosphoreum
Text: as §1, §2, §3, §4

[3] = system: FAJ-N1C0 recombinant β-galactoside-α2,3-sialyltransferase; test: Acceptor substrate specificity of recombinant β-galactoside-α2,3-sialyltransferase (mono-, disaccharides); assay type: biochemical, Vibrio sp.; set-up: FAJ-N1C0 Sialyltransferase activity Relative activity (%): tested at 42 mM; details: 20° C., 14 hours; for FAJ-N1C0 Sialyltransferase activity: Table 16: 1 μmol acceptor, pH 5.0, about 2.5 mU enzyme; for FAJ-N1C0 Sialyltransferase activity Relative activity (%): Table 16: activity toward lactose set to 100
Text: as §1, §2, §3, §4

[4] = Table 17: 1 μmol acceptor, pH 5.0, 1.0 mU per reaction, 30° C., 0.5 minutes or 2 minutes
[5] = Table 17: activity toward lactose set to 100, 30° C., 0.5 minutes or 2 minutes
[6] = Table 17: 1 μmol acceptor, pH 5.0, 2.3 mU per reaction, 30° C., 0.5 minutes or 2 minutes
[7] = Table 16: 1 μmol acceptor, pH 5.0, about 2.5 mU enzyme, 20° C., 14 hours
[8] = Table 16: activity toward lactose set to 100, 20° C., 14 hours
[9] = Table 18: 0.2 μmol acceptor (8.4 mM), pH 5.0, 1.0 mU per reaction, 30° C., 2 minutes
[10] = Table 18: activity toward lactose set to 100, 0.2 μmol acceptor, 30° C., 2 minutes
[11] = Table 18: 0.2 μmol acceptor (8.4 mM), pH 5.0, 23 mU per reaction, 30° C., 2 minutes

Structure (SMILES) | ISH224-N1C0 Sialyltransferase activity [1, 4] [nmol/min] | ISH224-N1C0 Sialyltransferase activity Relative activity (%) [1, 5] [%] | ISH467-N2C0 Sialyltransferase activity [2, 6] [nmol/min] | ISH467-N2C0 Sialyltransferase activity Relative activity (%) [2, 5] [%] | FAJ-N1C0 Sialyltransferase activity [3] [nmol/min] | FAJ-N1C0 Sialyltransferase activity Relative activity (%) [3] [%] | ISH224-N1C0 Sialyltransferase activity [1, 7] [nmol/min] | ISH224-N1C0 Sialyltransferase activity Relative activity (%) [1, 8] [%] | ISH467-N2C0 Sialyltransferase activity [2, 7] [nmol/min] | ISH467-N2C0 Sialyltransferase activity Relative activity (%) [2, 8] [%] | ISH224-N1C0 Sialyltransferase activity [1, 9] [nmol/min] | ISH224-N1C0 Sialyltransferase activity Relative activity (%) [1, 10] [%] | ISH467-N2C0 Sialyltransferase activity [2, 11] [nmol/min] | ISH467-N2C0 Sialyltransferase activity Relative activity (%) [2, 10] [%]
CO[C@H]1O[C@H](C)[C@H](O)[C@H](O)[C@H]1O [Methylαfucopyranoside, methyl-α-D-fucopyranoside] | 0.70 | 68 | 1.13 | 49 | – | – | – | – | – | – | – | – | – | –
CO[C@H]1O[C@H](CO)[C@@H](O)[C@H](O)[C@H]1O [Methylαglucopyranoside, methyl-α-D-glucopyranoside] | 0.70 | 68 | 1.11 | 48 | 4.7 | 62 | 4.3 | 51 | 6.2 | 79 | – | – | – | –
CO[C@H]1O[C@H](CO)[C@@H](O)[C@H](O)[C@@H]1O [Methylαmannopyranoside, methyl-α-D-mannopyranoside] | 1.11 | 108 | 1.38 | 60 | 4.3 | 57 | 4.7 | 56 | 5.5 | 71 | – | – | – | –
CO[C@@H]1O[C@H](C)[C@H](O)[C@H](O)[C@H]1O [Methylβfucopyranoside, methyl-β-D-fucopyranoside] | 0.50 | 48 | 0.97 | 42 | – | – | – | – | – | – | – | – | – | –
CO[C@@H]1O[C@H](CO)[C@@H](O)[C@H](O)[C@H]1O [Methylβglucopyranoside, methyl-β-D-glucopyranoside] | 0.27 | 26 | 0.76 | 33 | 4.0 | 52 | 3.7 | 43 | 3.6 | 46 | – | – | – | –
CO[C@@H]1O[C@H](CO)[C@@H](O)[C@H](O)[C@@H]1O [Methylβmannopyranoside, methyl-β-D-mannopyranoside] | 1.03 | 100 | 1.45 | 63 | – | – | – | – | – | – | – | – | – | –
CC(=O)N[C@H]1C(O)O[C@H](CO)[C@@H](O)[C@@H]1O (stereo partly drawn) [N-Acetylglucosamine, N-acetylglucosamine] | 0.51 | 50 | 0.91 | 40 | 4.2 | 55 | 5.7 | 68 | 5.0 | 63 | – | – | – | –
CO[C@H]1O[C@H](CO)[C@H](O)[C@H](O[C@H]2O[C@H](CO)[C@H](O)[C@H](O)[C@H]2O)[C@H]1O [methyl-α-D-galactopyranosyl-α1,3-galactopyranoside] | – | – | – | – | – | – | – | – | – | – | 8.80 | 528 | 7.17 | 308
CO[C@@H]1O[C@H](CO)[C@H](O)[C@H](O[C@@H]2O[C@H](CO)[C@H](O)[C@H](O)[C@H]2O)[C@H]1O [methyl-β-D-galactopyranosyl-β1,3-galactopyranoside] | – | – | – | – | – | – | – | – | – | – | 5.52 | 331 | 5.17 | 222
